Measurements as given in US6417222B1, “[2-substituted-5-[3-thienyl)-benzyl]-2- ([2-isopropoxy-5-fluoro]-phenyoxy)-ethyl]-amine derivatives, method for the production and use thereof as medicaments” (Pierre Fabre Medicament, priority 1999, dated 2002).

What was measured:
[1] = biological target: T1, D2 receptors (Rattus norvegicus, UniProt P61169); test: Inhibition of the behavior induced by methylphenidate (antidopaminergic activity in vivo); conditions: rats, oral administration, read-out: Normalization ED50
T1 construct: from tissue; host or cells: whole living rat (central nervous system)
T1 sequence (P61169 whole entry): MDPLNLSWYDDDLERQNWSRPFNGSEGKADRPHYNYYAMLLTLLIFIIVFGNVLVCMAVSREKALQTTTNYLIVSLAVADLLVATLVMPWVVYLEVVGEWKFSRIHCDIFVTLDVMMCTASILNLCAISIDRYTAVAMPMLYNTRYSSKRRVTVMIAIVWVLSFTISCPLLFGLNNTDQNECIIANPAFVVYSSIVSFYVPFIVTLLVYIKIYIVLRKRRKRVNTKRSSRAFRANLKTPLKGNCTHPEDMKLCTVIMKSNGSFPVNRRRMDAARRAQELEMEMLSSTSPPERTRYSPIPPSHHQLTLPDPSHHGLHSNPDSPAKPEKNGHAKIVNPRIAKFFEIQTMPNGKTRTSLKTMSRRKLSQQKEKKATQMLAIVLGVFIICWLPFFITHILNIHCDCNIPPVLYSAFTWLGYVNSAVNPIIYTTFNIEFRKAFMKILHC
From the text: (§1) 2—Evaluation of the antagonist activity of the D2 receptors and of the cataleptogenic effects of the compounds of the invention in vivo

[2] = biological target: receptors of the D2 type (Homo sapiens, UniProt P14416); test: Affinity for D2 receptors by displacement of (3H) YM-09151-2; format: binding; conditions: mean of at least 3 experiments, read-out: D2 pKi (converted)
Sequence of receptors of the D2 type (P14416 whole entry): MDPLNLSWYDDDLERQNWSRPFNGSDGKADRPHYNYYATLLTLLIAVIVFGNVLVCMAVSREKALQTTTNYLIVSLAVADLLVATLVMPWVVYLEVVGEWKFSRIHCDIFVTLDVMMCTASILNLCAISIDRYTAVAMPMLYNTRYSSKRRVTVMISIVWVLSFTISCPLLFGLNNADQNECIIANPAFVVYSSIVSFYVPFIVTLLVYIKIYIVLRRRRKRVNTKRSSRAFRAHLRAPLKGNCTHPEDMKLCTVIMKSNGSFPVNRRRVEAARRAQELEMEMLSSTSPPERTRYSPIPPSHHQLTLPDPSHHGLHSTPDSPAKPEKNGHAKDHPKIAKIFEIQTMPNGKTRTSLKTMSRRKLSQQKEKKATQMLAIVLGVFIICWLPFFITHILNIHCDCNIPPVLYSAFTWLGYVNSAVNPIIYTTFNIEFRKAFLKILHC
Procedure: 1—Measurement of the affinity of the compounds of the invention for the D2 receptors.
The affinity of the compounds of the invention for the receptors of the D2 type was determined by measuring the displacement of (^3H) YM-09151-2 (NET-1004 70-87 Ci/mmol), according to the method described in Naunyn-Schimiedeberg's Arch. Pharmacol. Methods, 1985, 329, 333. The pKi values (−log Ki) are given in the form of a mean ±SEM of at least 3 experiments.

[3] = Cataleptogenic power (extrapyramidal side effects); conditions: rat, in vivo; rats, oral administration; read-out: Catalepsy ED50
From the text: as §1
The test for evaluating the propensity of the products of the invention to cause side effects of extrapyramidal order is based on their cataleptogenic power, measured in rats, according to the method described in Eur. J. Pharmacol. 1996, 313, 25.

Row | Ki [2] | Structure (SMILES) | ED50 [1] | ED50 [3]
1 | – | Cc1nc2n(c(=O)c1CCN1CCC(c3noc4cc(F)ccc34)CC1)CCCC2 [Risperidone, reference compound] | 6.5 mg/kg | –
2 | 355 pM | CC(C)Oc1ccc(F)cc1OCCNCc1cccc(-c2ccsc2)c1 [la, [3-(3-Thienyl)benzyl]-[2-([5-fluoro-2-isopropoxy]-phenoxy)ethyl]amine] | 0.7 mg/kg | > 40 mg/kg
